From the CheMixHub ionic liquid set
± gives the uncertainty stated by the source.

Experiment: xn = mol fraction of the nth substance listed

O=C[O-].OCC[NH2+]CCO + O
100 kPa
Conditions	viscosity [mPa·s]
293.15 K, x1 = 0.075	3.25 ± 0.68
293.15 K, x1 = 0.3185	36.2 ± 7.3
293.15 K, x1 = 1	471 ± 96
303.15 K, x1 = 0.0292	1.34 ± 0.28
303.15 K, x1 = 0.7987	172 ± 35
313.15 K, x1 = 0.075	1.99 ± 0.41
333.15 K, x1 = 0.3185	8.4 ± 1.7
333.15 K, x1 = 0.7987	40.4 ± 8.1
343.15 K, x1 = 0.5932	15.3 ± 3.1
343.15 K, x1 = 1	35.9 ± 7.2

CC(=O)Nc1ccc(O)cc1 + O + CCCC[n+]1ccn(C)c1.[Br-]
101 kPa, frequency 0.0003 MHz
Conditions	electrical conductivity [S/m]
293.15 K, x1 = 0.0005475, x3 = 1.14e-05	0.0067 ± 0.0039
293.15 K, x1 = 0.0005475, x3 = 1.628e-05	0.0094 ± 0.004
293.15 K, x1 = 0.001082, x3 = 4.9e-06	0.003 ± 0.0038
298.15 K, x1 = 0.0005475, x3 = 9.05e-06	0.0056 ± 0.004
298.15 K, x1 = 0.0005475, x3 = 1.447e-05	0.0085 ± 0.004
298.15 K, x1 = 0.001082, x3 = 5.63e-06	0.0034 ± 0.0039
298.15 K, x1 = 0.001082, x3 = 1.162e-05	0.0067 ± 0.0038
298.15 K, x1 = 0.001082, x3 = 1.635e-05	0.0092 ± 0.0039
303.15 K, x1 = 0.0005475, x3 = 5.43e-06	0.0036 ± 0.0041
303.15 K, x1 = 0.0005475, x3 = 1.158e-05	0.0071 ± 0.0037
303.15 K, x1 = 0.001082, x3 = 5.09e-06	0.0032 ± 0.0039
303.15 K, x1 = 0.001082, x3 = 1.162e-05	0.0067 ± 0.0037
303.15 K, x1 = 0.001082, x3 = 1.617e-05	0.0091 ± 0.0039
308.15 K, x1 = 0.0005475, x3 = 2.71e-06	0.0025 ± 0.0049
308.15 K, x1 = 0.0005475, x3 = 9.41e-06	0.0073 ± 0.0045
308.15 K, x1 = 0.001082, x3 = 5.63e-06	0.0038 ± 0.0042
308.15 K, x1 = 0.001082, x3 = 1.199e-05	0.0075 ± 0.0038

CC(=O)Nc1ccc(O)cc1 + O + CCCC[n+]1ccn(C)c1.[Cl-]
101 kPa, frequency 0.0003 MHz
Conditions	electrical conductivity [S/m]
293.15 K, x1 = 0.0005511, x3 = 5.07e-06	0.0028 ± 0.0035
293.15 K, x1 = 0.0005511, x3 = 8.5e-06	0.0044 ± 0.0034
293.15 K, x1 = 0.0005511, x3 = 1.194e-05	0.0061 ± 0.0034
293.15 K, x1 = 0.0005511, x3 = 1.61e-05	0.0081 ± 0.0034
293.15 K, x1 = 0.0005511, x3 = 1.954e-05	0.0096 ± 0.0034
293.15 K, x1 = 0.001084, x3 = 4.54e-06	0.0025 ± 0.0031
293.15 K, x1 = 0.001084, x3 = 7.63e-06	0.0038 ± 0.003
293.15 K, x1 = 0.001084, x3 = 1.144e-05	0.0055 ± 0.003
293.15 K, x1 = 0.001084, x3 = 1.471e-05	0.0067 ± 0.0031
293.15 K, x1 = 0.001084, x3 = 1.907e-05	0.0086 ± 0.003
298.15 K, x1 = 0.0005511, x3 = 2.53e-06	0.0016
298.15 K, x1 = 0.0005511, x3 = 4.16e-06	0.0025 ± 0.0038
298.15 K, x1 = 0.0005511, x3 = 6.69e-06	0.0039 ± 0.0037
298.15 K, x1 = 0.0005511, x3 = 8.87e-06	0.005 ± 0.0037
298.15 K, x1 = 0.0005511, x3 = 1.122e-05	0.0062 ± 0.0037
298.15 K, x1 = 0.0005511, x3 = 1.285e-05	0.007 ± 0.0037
298.15 K, x1 = 0.0005511, x3 = 1.701e-05	0.009 ± 0.0036
298.15 K, x1 = 0.001084, x3 = 4.54e-06	0.0028 ± 0.0036
298.15 K, x1 = 0.001084, x3 = 8.36e-06	0.0046 ± 0.0035
298.15 K, x1 = 0.001084, x3 = 1.235e-05	0.0065 ± 0.0035
298.15 K, x1 = 0.001084, x3 = 1.962e-05	0.0099 ± 0.0034
303.15 K, x1 = 0.0005511, x3 = 3.44e-06	0.0022 ± 0.0039
303.15 K, x1 = 0.0005511, x3 = 5.79e-06	0.0035 ± 0.0039
303.15 K, x1 = 0.0005511, x3 = 9.23e-06	0.0054 ± 0.0038
303.15 K, x1 = 0.0005511, x3 = 1.737e-05	0.0097 ± 0.0038
303.15 K, x1 = 0.001084, x3 = 2.72e-06	0.0018
303.15 K, x1 = 0.001084, x3 = 1.217e-05	0.0067 ± 0.0037
303.15 K, x1 = 0.001084, x3 = 1.726e-05	0.0092 ± 0.0037
308.15 K, x1 = 0.0005511, x3 = 3.98e-06	0.0028 ± 0.0043
308.15 K, x1 = 0.0005511, x3 = 7.6e-06	0.0049 ± 0.0042
308.15 K, x1 = 0.0005511, x3 = 1.031e-05	0.0065 ± 0.0041
308.15 K, x1 = 0.001084, x3 = 4.18e-06	0.0028 ± 0.0041
308.15 K, x1 = 0.001084, x3 = 8.36e-06	0.005 ± 0.004
308.15 K, x1 = 0.001084, x3 = 1.235e-05	0.0072 ± 0.004
308.15 K, x1 = 0.001084, x3 = 1.689e-05	0.0097 ± 0.004

CC[n+]1ccn(C)c1.O=S(=O)([N-]S(=O)(=O)C(F)(F)F)C(F)(F)F + O=C1CCCO1
100 kPa, frequency 0.005 MHz
Conditions	electrical conductivity [S/m]
293.15 K, x2 = 0	0.774 ± 0.023
293.15 K, x2 = 0.3005	1.17 ± 0.035
293.15 K, x2 = 0.5101	1.47 ± 0.044
293.15 K, x2 = 0.9005	1.58 ± 0.048
293.15 K, x2 = 0.95	1.13 ± 0.037
298.15 K, x2 = 0.2073	1.19 ± 0.036
303.15 K, x2 = 0	1.06 ± 0.032
303.15 K, x2 = 0.2073	1.34 ± 0.04
303.15 K, x2 = 0.3005	1.47 ± 0.044
303.15 K, x2 = 0.5101	1.79 ± 0.054
303.15 K, x2 = 0.7	2.07 ± 0.062
303.15 K, x2 = 0.7994	2.09 ± 0.063
303.15 K, x2 = 0.8498	2.06 ± 0.062
303.15 K, x2 = 0.95	1.32 ± 0.043
308.15 K, x2 = 0	1.2 ± 0.036
308.15 K, x2 = 0.7994	2.25 ± 0.068
313.15 K, x2 = 0	1.35 ± 0.041
313.15 K, x2 = 0.3005	1.77 ± 0.053
318.15 K, x2 = 0.2073	1.82 ± 0.055
318.15 K, x2 = 0.5101	2.31 ± 0.069
318.15 K, x2 = 0.95	1.59 ± 0.052
323.15 K, x2 = 0.2073	2.04 ± 0.061
323.15 K, x2 = 0.6	2.69 ± 0.081

CC[n+]1ccn(C)c1.O=S(=O)([N-]S(=O)(=O)C(F)(F)F)C(F)(F)F + O=C1OCCO1
100 kPa, x2 = 0
Conditions	viscosity [mPa·s]
383.15 K	4.2 ± 0.4
393.15 K	3.7 ± 0.4

C[N+](C)(C)Cc1ccccc1.[Cl-] + O=C([O-])C1=NN(c2ccc(S(=O)(=O)[O-])cc2)C(=O)C1N=Nc1ccc(S(=O)(=O)[O-])cc1.[Na+].[Na+].[Na+] + O
electrical conductivity [S/m], 101.3 kPa, frequency 0.001 MHz
Conditions	298.15 K	308.15 K	318.15 K
x2 = 0, x1 = 1.802e-05	0.0137 ± 0.0052	0.0183 ± 0.0062	0.0233 ± 0.0077
x2 = 0, x1 = 5.406e-05	0.0295 ± 0.0056	0.0398 ± 0.0071	0.0456 ± 0.0084
x2 = 0, x1 = 9.009e-05	0.0457 ± 0.0069	0.0565 ± 0.0079	0.0643 ± 0.0094

viscosity [mPa·s], 101.3 kPa
Conditions	298.15 K	308.15 K	318.15 K
x2 = 0, x1 = 1.802e-05	0.88 ± 0.045	0.726 ± 0.044	0.611 ± 0.044
x2 = 0, x1 = 5.406e-05	0.897 ± 0.045	0.747 ± 0.044	0.627 ± 0.044
x2 = 0, x1 = 9.009e-05	0.914 ± 0.045	0.766 ± 0.045	0.646 ± 0.044
